In assay [1] the target is T1, cruzain (Trypanosoma cruzi, UniProt P25779). Description: biochemical. As to conditions: pH 7.5; for kinact/KI: irreversible inactivation. On the procedure:
All enzyme assays were performed at 25° C. Initial rates of the peptidolytic reaction catalyzed by cruzain were measured by monitoring the fluorescence generated by cleavage of the dipeptide-AMC bond. Assays were conducted in 96-well plates (Greiner; flat-bottom, clear black plates) in a total volume of 250 μL, containing either 50 mM MES (pH 7.5), 50 mM TAPSO, 100 mM DEA, 1 mM CHAPS, 1 mM Na2EDTA, 5 mM DTT, and 10% DMSO (v/v) or 50 mM sodium acetate (pH 5.5), 50 mM MES, 100 mM TEA, 1 mM CHAPS, 1 mM Na2EDTA, 5 mM DTT, and 10% DMSO (v/v). Substrates were dissolved in 100% DMSO and were then diluted 10-fold such that when added to reaction mixtures, final DMSO concentration was 10% (v/v). […] Fluorescence was measured on either a SpectraMax M5 (Molecular Devices) or a Synergy HTX (BioTek, Winooski, VT) microplate reader (λex=360 nm, λem=460 nm). Initial rates were determined from continuous kinetic time courses and calculated from the earliest time points, typically at less than 10 min.
(2) Enzyme and compound were preincubated over extended periods of time, and then aliquots were removed and diluted 50-fold to 100-fold into reaction mixtures containing 10 μM Cbz-Phe-Arg-AMC, followed by the assessment of the resulting time courses.
Data for time-dependent inhibition were fitted by several methods.
Values of kobs versus [inhibitor] were then replotted and fitted to eq 4 for which k3 and k4 represent the respective rates of formation and dissolution of the EI* complex as depicted in FIG. 9.
In addition, time-course data were fitted globally by two methods. First, expressions for vs, vi, and kobs were substituted into eq 3 to generate eq 6, which was used to fit time-course data at all concentrations of inhibitors simultaneously. Second, time-course data were fitted using KinTek Explorer as either a single-binding step model with the two kinetic parameters k3/Ki and k4 or a two-step binding mechanism as shown in FIG. 9 from which rate constants k1-k4 are determined (Supporting Information).
Enzyme Assays. The preparation of cruzain and 3CL^pro were described in previous publications.^8, 34 The evaluation of inhibitors was modified from our lab protocol and described briefly as follows.^35 All enzyme assays were conducted in 96-well, clear bottom, black plates at 25° C., and fluorescence emanating from product formation was measured using either a SpectraMax M5 (Molecular Devices) or a Synergy HTX (Biotek) microplate reader, with excitation at λex=360 nm and emission at λem=460 nm. […] Reactions were started with addition of enzyme (typically, to a final concentration of 0.2 nM for cruzain or 40 nM for 3CL^pro), and the time courses were recorded for 0.5-1 h.
Kinetic Data Analysis. All time-course data were fitted to eq. 1, wherein P is the fluorescence generated by formation of AMC or liberated ACC, C is the background constant, vi and vs are respectively initial-state and steady-state reaction rates, t is time, and kobs is the observed rate of conversion of the initial inhibited rate to the final inhibited rate.^46
Overall inhibition constants (Ki* values) were obtained by fitting vs/v0 to eq. 4, wherein vs and v0 are steady-state reaction rates in the presence and absence of inhibitor respectively, [S] and [I] represent the fixed concentration of substrate and variable inhibitor, Km is the Michaelis constant of the substrate.

For assay [2], the target named is T1, cruzain. Kind of assay: Kinetic parameters of peptide substrates for cruzain. Type of assay: biochemical. The following applies: for Km / kcat / kcat/Km: pH 7.5, 25° C., 10% DMSO; for kcat rel: relative to Cbz-Phe-Arg-AMC. On the procedure: All enzyme assays were performed at 25° C. Initial rates of the peptidolytic reaction catalyzed by cruzain were measured by monitoring the fluorescence generated by cleavage of the dipeptide-AMC bond. Assays were conducted in 96-well plates (Greiner; flat-bottom, clear black plates) in a total volume of 250 μL, containing either 50 mM MES (pH 7.5), 50 mM TAPSO, 100 mM DEA, 1 mM CHAPS, 1 mM Na2EDTA, 5 mM DTT, and 10% DMSO (v/v) or 50 mM sodium acetate (pH 5.5), 50 mM MES, 100 mM TEA, 1 mM CHAPS, 1 mM Na2EDTA, 5 mM DTT, and 10% DMSO (v/v). Substrates were dissolved in 100% DMSO and were then diluted 10-fold such that when added to reaction mixtures, final DMSO concentration was 10% (v/v). Reactions were initiated with the addition of 1-10 μL of cruzain (final concentrations: 0.1-3.0 nM (preincubation studies)). Fluorescence was measured on either a SpectraMax M5 (Molecular Devices) or a Synergy HTX (BioTek, Winooski, VT) microplate reader (λex=360 nm, λem=460 nm). Initial rates were determined from continuous kinetic time courses and calculated from the earliest time points, typically at less than 10 min.
Initial velocity data for cruzain-catalyzed reactions of fluorogenic peptide substrates were determined by fitting to eq 1 using GraphPad Prism 6.0 or SigmaPlot 12.0. For eq 1, kcat is the turnover number, [E]t is the concentration of active sites of cruzain, and Ka is the Michaelis constant for the substrate A. Cruzain concentrations were determined by spectrophotometric analysis of purified sample solutions as described.^44

Setting [3] is: obtained >10 minutes following initiation of reaction by addition of enzyme, read-out: Ki* Cruzain.
Setting [4] is: apparent initial inhibition constant, 25° C., read-out: Ki.
Where [5] appears, read: apparent tight-binding inhibition constant, 25° C., read-out: Ki*.

Where “and” joins values, the source holds several entries; their conditions need not be identical. Identical values can stand only once. Like-named read-outs stand apart in the source and are kept apart here. Non-standard residues stand in square brackets, D forms with d. Residues, ends and D or L forms follow the SMILES beside them. *: point of attachment. hPhe = N[CH](CCc1ccccc1)C(=O)O; 4Pal = N[CH](Cc1ccncc1)C(=O)O; AMC = Cc1cc(=O)oc2cc(N*)ccc12; Cbz = O=C(OCc1ccccc1)*

T1 sequence (P25779 123-467 limits assumed): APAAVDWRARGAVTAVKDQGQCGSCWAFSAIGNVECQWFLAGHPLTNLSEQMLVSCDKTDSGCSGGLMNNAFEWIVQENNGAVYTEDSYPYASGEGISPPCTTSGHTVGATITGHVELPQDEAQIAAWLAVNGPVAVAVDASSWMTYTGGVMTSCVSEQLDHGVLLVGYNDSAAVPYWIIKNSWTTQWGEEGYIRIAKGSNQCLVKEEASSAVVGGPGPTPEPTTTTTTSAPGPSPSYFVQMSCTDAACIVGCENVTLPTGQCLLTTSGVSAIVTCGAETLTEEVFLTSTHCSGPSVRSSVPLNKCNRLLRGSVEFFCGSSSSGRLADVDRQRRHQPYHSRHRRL

Take `O=C(N[C@@H](Cc1ccccc1)C(=O)N[C@H](/C=C/S(=O)(=O)c1ccccc1)Cc1ccccc1)OCc1ccccc1` [Compound 1]: on cruzain [1] (setting [3]), the Ki came to 0.0036 µM.
For the molecule `NC(=O)/C=C/[C@H](Cc1ccccc1)NC(=O)[C@H](Cc1ccccc1)NC(=O)OCc1ccccc1` [Compound 2, Benzyl ((S)-1-(((S,E)-5-Amino-5-oxo-1-phenylpent-3-en-2-yl)-amino)-1-oxo-3-phenylpropan-2-yl)carbamate], the Ki on cruzain [1] (setting [4]) is 37 ± 2 µM. Further, the kinact/KI (as a rule, the maximal inactivation rate divided by the concentration that gives half of it) on cruzain [1] (25° C.) is 22 M⁻¹ s⁻¹ and 21.7 ± 0.8 M⁻¹ s⁻¹.
For `NC(=O)/C=C/[C@H](CCc1ccccc1)NC(=O)[C@H](Cc1ccccc1)NC(=O)OCc1ccccc1` [Compound 3, Benzyl ((S)-1-(((S,E)-6-Amino-6-oxo-1-phenylhex-4-en-3-yl)-amino)-1-oxo-3-phenylpropan-2-yl)carbamate], the Ki on cruzain [1] (setting [4]) was found to be 3 ± 1 µM. Moreover, the inactivation efficiency (kinact/KI) on cruzain [1] (25° C.) amounted to 1700 ± 500 M⁻¹ s⁻¹.
As to `CN1CCN(C(=O)N[C@@H](Cc2ccccc2)C(=O)N[C@H](/C=C/C(N)=O)CCc2ccccc2)CC1` [Compound 4, N—((S)-1-(((S,E)-6-Amino-6-oxo-1-phenylhex-4-en-3-yl)amino)-1-oxo-3-phenylpropan-2-yl)-4-methylpiperazine-1-carboxamide], at cruzain [1] (setting [4]), the Ki was 3.4 ± 0.4 µM. Besides, the kinact/KI on cruzain [1] (25° C.) came out at 1900 ± 200 M⁻¹ s⁻¹.
Consider `CN1CCN(C(=O)N[C@@H](Cc2ccccc2)C(=O)N[C@H](/C=C/c2ccccn2)CCc2ccccc2)CC1` [Compound 14, 4-Methyl-N—((S)-1-oxo-3-phenyl-1-(((S,E)-5-phenyl-1-(pyridin-2-yl)pent-1-en-3-yl)amino)propan-2-yl)piperazine-1-carboxamide], for which the Ki at cruzain [1] (setting [5]) stood at 3.4 µM.
With `CC(C)C[C@H](NC(=O)OCc1ccccc1)C(=O)N[C@H](/C=C/c1ccccn1)CCc1ccccc1` [Compound 18, Benzyl ((S)-4-Methyl-1-oxo-1-(((S,E)-5-phenyl-1-(pyridin-2-yl)-pent-1-en-3-yl)amino)pentan-2-yl)carbamate], the Ki on cruzain [1] (setting [4]) was found to be 7.8 ± 0.6 µM; on cruzain [1] (setting [5]), 1.42 µM.
With `C[C@@H](/C=C/c1ccccn1)NC(=O)[C@H](Cc1ccccc1)NC(=O)OCc1ccccc1` [Compound 19, Benzyl ((S)-1-Oxo-3-phenyl-1-(((S,E)-4-(pyridin-2-yl)but-3-en-2-yl)amino)propan-2-yl)carbamate], the Ki on cruzain [1] (setting [5]) was 4.8 ± 0.2 µM.
Same read-out and setting: the same measure for `O=C(N[C@@H](Cc1ccccc1)C(=O)N[C@H](/C=C/c1ccncc1)Cc1ccccc1)OCc1ccccc1` [Compound 21, Benzyl ((S)-1-Oxo-3-phenyl-1-(((S,E)-1-phenyl-4-(pyridin-4-yl)-but-3-en-2-yl)amino)propan-2-yl)carbamate]: 5.5 ± 0.2 µM.
`C[n+]1ccc(/C=C/[C@H](Cc2ccccc2)NC(=O)[C@H](Cc2ccccc2)NC(=O)OCc2ccccc2)cc1` [Compound 22, 4-((S,E)-3-((S)-2-(((Benzyloxy)carbonyl)amino)-3-phenylpropanamido)-4-phenylbut-1-en-1-yl)-1-methylpyridin-1-ium Iodide]: the Ki at cruzain [1] (setting [4]) was 92 ± 5 µM; at cruzain [1] (setting [5]), 4 ± 0.1 µM.
For `O=C(N[C@@H](Cc1ccccc1)C(=O)N[C@H](/C=C/c1ccncn1)Cc1ccccc1)OCc1ccccc1` [Compound 23, Benzyl ((S)-1-Oxo-3-phenyl-1-(((S,E)-1-phenyl-4-(pyrimidin-4-yl)-but-3-en-2-yl)amino)propan-2-yl)carbamate], in that order: 10.8 ± 1.4 µM and 1.14 ± 0.07 µM.
For the molecule `O=C(N[C@@H](Cc1ccccc1)C(=O)N[C@H](CO)Cc1ccccc1O)OCc1ccccc1` [Compound 51], the Ki at cruzain [1] (setting [3]) was greater than 10 µM.
Turning to `Cc1cc(=O)oc2cc(NC(=O)[C@H](CCc3ccccc3)NC(=O)[C@H](Cc3ccccc3)NC(=O)OCc3ccccc3)ccc12` [Compound S2, Cbz-Phe-hPhe-AMC] (Cbz-Phe-[hPhe]-{AMC}), at cruzain [2], the Michaelis-Menten constant (Km) (commonly the concentration of substrate that gives half-maximal velocity) was 0.26 ± 0.06 µM; the kcat – broadly, the number of substrate molecules converted per active site and unit of time at saturation – was found to be 2.0 ± 0.2 s⁻¹; the kcat/Km (commonly the second-order rate constant that governs catalysis at low substrate concentration) is 8e+06 M⁻¹ s⁻¹ and 8e+06 ± 2e+06 M⁻¹ s⁻¹; the kcat rel is listed as 0.21.
Take `Cc1cc(=O)oc2cc(NC(=O)C(CCc3ccccc3)NC(=O)C(CC(C)C)NC(=O)OCc3ccccc3)ccc12` (stereo not drawn) [Compound S3, Cbz-Leu-hPhe-AMC] (Cbz-Leu-[hPhe]-{AMC}; configuration not given here): at cruzain [2], the Km turned out to be 0.8 ± 0.2 µM, the kcat amounted to 3.0 ± 0.2 s⁻¹, the kcat/Km was 4e+06 ± 1e+06 M⁻¹ s⁻¹ and the kcat rel stood at 0.21.
For `Cc1cc(=O)oc2cc(NC(=O)[C@H](CCCN=C(N)N)NC(=O)[C@H](CC(C)C)NC(=O)OCc3ccccc3)ccc12` [Compound S4, Cbz-Leu-Arg-AMC], in that order: 2.2 ± 0.3 µM, 8.4 ± 0.4 s⁻¹, 3.8e+06 ± 700000 M⁻¹ s⁻¹ and 0.88.
As for `Cc1cc(=O)oc2cc(NC(=O)C(Cc3ccncc3)NC(=O)C(Cc3ccccc3)NC(=O)OCc3ccccc3)ccc12` (stereo not drawn) [Compound S5, Cbz-Phe-(4-Pyr)Ala-AMC] (Cbz-Phe-[4Pal]-{AMC}; configuration not given here), at cruzain [2], the Km turned out to be 3.7 µM, the kcat is 7.5 ± 0.5 s⁻¹, the kcat/Km came to 2e+06 ± 400000 M⁻¹ s⁻¹ and the kcat rel is 0.76.
`Cc1cc(=O)oc2cc(NC(=O)C(CCc3ccccc3)NC(=O)C(Cc3ccccc3)NC(=O)N3CCN(C)CC3)ccc12` (stereo not drawn) [Compound S7, NMePip-Phe-hPhe-AMC]: at cruzain [2], the Km is 3.1 ± 0.3 µM; the kcat was found to be 4.0 ± 0.1 s⁻¹; the kcat/Km is 1.3e+06 M⁻¹ s⁻¹ and 1.3e+06 ± 100000 M⁻¹ s⁻¹; the kcat rel came out at 0.42.
Consider `Cc1cc(=O)oc2cc(NC(=O)[C@H](CCc3ccccc3)NC(=O)[C@H](Cc3ccncc3)NC(=O)OCc3ccccc3)ccc12` [Compound S8, Cbz-(4-Pyr)Ala-hPhe-AMC] (Cbz-[4Pal]-[hPhe]-{AMC}), for which, on cruzain [2], the Km came to 4.6 µM; the kcat was 5.3 s⁻¹ and 5.3 ± 0.2 s⁻¹; the specificity constant (kcat/Km) amounted to 1.1e+06 ± 100000 M⁻¹ s⁻¹; the kcat rel worked out at 0.55.
As for “N—((S)-1-(((2S,3S)-3-hydroxy-1,2,3,4-tetrahydronaphthalen-2-yl)amino)-1-oxo-3-phenylpropan-2-yl)-4-methylpiperazine-1-carboxamide and N—((S)-1-(((2R,3R)-3-hydroxy-1,2,3,4-tetrahydronaphthalen-2-yl)amino)-1-oxo-3-phenylpropan-2-yl)-4-methylpiperazine-1-carboxamide [Compound 50]”, the Ki on cruzain [1] (setting [5]) and on cruzain [1] (setting [3]) was greater than 100 µM throughout.

Values taken from US20240150396A1 (The Texas A&M University System, priority 2021, published 2024).
